US20250011289A1, “1H-BENZO[B]AZEPIN-2(3H)-ONE COMPOUNDS, COMPOSITIONS AND METHODS OF TREATING CANCER” (Chengdu Anticancer Bioscience, Ltd., priority 2021, published 2025)
Read-outs that look alike come from different tables or passages of the source.

Legend:
[1] = system: RPE-Neo or RPE-MYC or RPE-MYC expressing an EGFP-Histone 2B fusion protein; test: Phenotypic screening assay (arrest in mitosis or change in DNA content, IN-Cell Analyzer); assay type: cell-based; details: compounds at 20 nM to 20 μM, analysed 24, 48 or 72 hours after initiation of treatment
Protocol: (§1) Screening was conducted as described before (Li et al. 2019). Briefly, RPE-Neo or RPE-MYC or RPE-MYC expressing an EGFP-Histone 2B fusion protein were passaged as batches of 96-well plates, 18-24 hours before exposure to the chemical compounds of the present disclosure at concentrations from 20 nM to 20 μM. At 24, 48 or 72 hours after initiation of treatment, cells were analyzed for either an arrest in mitosis or a change in DNA content by GE 1N-Cell Analyzer 2000. MTT assays of cellular proliferation were performed as previously described (Li et al. 2019).
(§2) As set forth in table 2 below, an values of greater than or equal to 1 nM and less than or equal to 1.0 μM is marked “A”; a value greater than 1.00 μM and less than or equal to 10.0 μM is marked “B”; a value greater than 10.0 μM and less than or equal to 30.0 μM is marked “C”; and a value greater than 30.0 μM and less than 1000 μM is marked “D.”

[2] = system: RPE-Neo or RPE-MYC cells; test: MTT assay of cellular proliferation; assay type: cell-based; details: compounds at 20 nM to 20 μM; read-out: Min. Effective conc. for Proliferative arrest (>50%)
Protocol: Human cancer cell lines were obtained from ATCC and cultured in DMEM (Gibco, Cleveland. TN, USA) supplemented with 5% fetal bovine serum (Gibco), penicillin (100 U/mL)-streptomycin (100 μg/mL) (Gibco, Cat. No. 15140-122), 2 mM L-glutamine (Gibco, 200 mM solution, Cat. No. 25030081), and 1 mM sodium pyruvate (Gibco, 100 mM solution, Cat. No. 11360070) at 37° C. in a humidified incubator that was maintained at 5% CO2.
as §1, §2

[3] = read-out: Min. Effective conc. for Along with Cell Death
[4] = read-out: Min. Effective conc. for Mitotic Arrest (>5%)
[5] = read-out: Min. Effective conc. for Polyploidy (≥5%)

Measured: minimal effective concentration

COc1ccc2c(c1)N(Cc1ccc(C)c(F)c1)C(=O)CC(c1nnc(C3CC3)o1)=C2Br [Compound 20-4, 5-bromo-4-(5-cyclopropyl-1,3,4-oxadiazol-2-yl)-1-(3-fluoro-4-methylbenzyl)-8-methoxy-1,3-dihydro-2H-benzo[b]azepin-2-one]
0.001 to 1 µM: [1]; [3] | [1]; [4] | [1]; [5] | [2]

Cc1ccc(CN2C(=O)CC(c3nnc(C4CC4)o3)=C(Cl)c3ccccc32)cc1F [Compound 20-5, 5-chloro-4-(5-cyclopropyl-1,3,4-oxadiazol-2-yl)-1-(3-fluoro-4-methylbenzyl)-1,3-dihydro-2H-benzo[b]azepin-2-one]
0.001 to 1 µM: [1]; [3] | [1]; [4] | [1]; [5] | [2]

Cc1ccc(CN2C(=O)CC(c3nnc(C4CC4)o3)=C(Br)c3ccc(F)cc32)cc1F [Compound 20-7, 5-bromo-4-(5-cyclopropyl-1,3,4-oxadiazol-2-yl)-8-fluoro-1-(3-fluoro-4-methylbenzyl)-1,3-dihydro-2H-benzo[b]azepin-2-one]
0.001 to 1 µM: [1]; [3] | [1]; [4] | [1]; [5] | [2]

Cc1nnc(C2=C(Br)c3ccc(F)cc3N(Cc3ccc(C)c(F)c3)C(=O)C2)o1 [Compound 20-8, 5-bromo-8-fluoro-1-(3-fluoro-4-methylbenzyl)-4-(5-methyl-1,3,4-oxadiazol-2-yl)-1,3-dihydro-2H-benzo[b]azepin-2-one]
0.001 to 1 µM: [1]; [3] | [1]; [4] | [1]; [5] | [2]

Cc1ccc(CN2C(=O)CC(c3nnc(C4CC4)o3)=C(Br)c3ccc(Cl)cc32)cc1F [Compound 20-9, 5-bromo-8-chloro-4-(5-cyclopropyl-1,3,4-oxadiazol-2-yl)-1-(3-fluoro-4-methylbenzyl)-1,3-dihydro-2H-benzo[b]azepin-2-one]
0.001 to 1 µM: [1]; [3] | [1]; [4] | [1]; [5] | [2]

Cc1nnc(C2=C(Br)c3ccc(Cl)cc3N(Cc3ccc(C)c(F)c3)C(=O)C2)o1 [Compound 20-10, 5-bromo-8-chloro-1-(3-fluoro-4-methylbenzyl)-4-(5-methyl-1,3,4-oxadiazol-2-yl)-1,3-dihydro-2H-benzo[b]azepin-2-one]
0.001 to 1 µM: [1]; [3] | [1]; [4] | [1]; [5] | [2]

Cc1ccc(CN2C(=O)CC(c3nnc(C4CC4)o3)=C(Br)c3ccc(C#N)cc32)cc1F [Compound 20-11, 5-bromo-4-(5-cyclopropyl-1,3,4-oxadiazol-2-yl)-1-(3-fluoro-4-methylbenzyl)-2-oxo-2,3-dihydro-1H-benzo[b]azepine-8-carbonitrile]
0.001 to 1 µM: [1]; [3] | [1]; [4] | [1]; [5] | [2]

Cc1ccc2c(c1)N(Cc1ccc(C)c(F)c1)C(=O)CC(c1nnc(C3CC3)o1)=C2Br [Compound 20-12, 5-bromo-4-(5-cyclopropyl-1,3,4-oxadiazol-2-yl)-1-(3-fluoro-4-methylbenzyl)-8-methyl-1,3-dihydro-2H-benzo[b]azepin-2-one]
0.001 to 1 µM: [1]; [3] | [1]; [4] | [1]; [5] | [2]

Cc1ccc2c(c1)N(Cc1ccc(C)c(F)c1)C(=O)CC(c1nnc(C)o1)=C2Br [Compound 20-13, 5-bromo-1-(3-fluoro-4-methylbenzyl)-8-methyl-4-(5-methyl-1,3,4-oxadiazol-2-yl)-1,3-dihydro-2H-benzo[b]azepin-2-one]
0.001 to 1 µM: [1]; [3] | [1]; [4] | [1]; [5] | [2]

Cc1ccc(CN2C(=O)CC(c3nnc(C4CC4)o3)=C(Br)c3ccc(C(F)(F)F)cc32)cc1F [Compound 20-14, 5-bromo-4-(5-cyclopropyl-1,3,4-oxadiazol-2-yl)-1-(3-fluoro-4-methylbenzyl)-8-(trifluoromethyl)-1,3-dihydro-2H-benzo[b]azepin-2-one]
0.001 to 1 µM: [1]; [3] | [1]; [4] | [1]; [5] | [2]

Cc1ccc(CN2C(=O)CC(c3nnc(C4CC4)o3)=C(Br)c3cccc(F)c32)cc1F [Compound 20-15, 5-bromo-4-(5-cyclopropyl-1,3,4-oxadiazol-2-yl)-9-fluoro-1-(3-fluoro-4-methylbenzyl)-1,3-dihydro-2H-benzo[b]azepin-2-one]
0.001 to 1 µM: [1]; [3] | [1]; [4] | [1]; [5] | [2]

Cc1ccc(CN2C(=O)CC(c3nnc(C4CC4)o3)=C(Br)c3c(F)cccc32)cc1F [Compound 20-16, 5-bromo-4-(5-cyclopropyl-1,3,4-oxadiazol-2-yl)-6-fluoro-1-(3-fluoro-4-methylbenzyl)-1,3-dihydro-2H-benzo[b]azepin-2-one]
0.001 to 1 µM: [1]; [3] | [1]; [4] | [1]; [5] | [2]

Cc1ccc(CN2C(=O)CC(c3nnc(C4CC4)o3)=C(Br)c3cc(F)ccc32)cc1F [Compound 20-17, 5-bromo-4-(5-cyclopropyl-1,3,4-oxadiazol-2-yl)-7-fluoro-1-(3-fluoro-4-methylbenzyl)-1,3-dihydro-2H-benzo[b]azepin-2-one]
0.001 to 1 µM: [1]; [3] | [1]; [4] | [1]; [5] | [2]

Cc1ccc(CN2C(=O)CC(c3nnc(C4CC4)o3)=C(Br)c3cccc(C)c32)cc1F [Compound 20-18, 5-bromo-4-(5-cyclopropyl-1,3,4-oxadiazol-2-yl)-1-(3-fluoro-4-methylbenzyl)-9-methyl-1,3-dihydro-2H-benzo[b]azepin-2-one]
0.001 to 1 µM: [1]; [3] | [1]; [4] | [1]; [5] | [2]

C#Cc1ccc2c(c1)N(Cc1ccc(C)c(F)c1)C(=O)CC(c1nnc(C3CC3)o1)=C2Br [Compound 20-20, 5-bromo-4-(5-cyclopropyl-1,3,4-oxadiazol-2-yl)-8-ethynyl-1-(3-fluoro-4-methylbenzyl)-1,3-dihydro-2H-benzo[b]azepin-2-one]
0.001 to 1 µM: [1]; [3] | [1]; [4] | [1]; [5] | [2]

COc1ccc(CN2C(=O)CC(c3nnc(C4CC4)o3)=C(Br)c3ccccc32)cc1 [Compound 20-21, 5-bromo-4-(5-cyclopropyl-1,3,4-oxadiazol-2-yl)-1-(4-methoxybenzyl)-1,3-dihydro-2H-benzo[b]azepin-2-one]
0.001 to 1 µM: [1]; [3] | [1]; [4] | [1]; [5] | [2]

Cc1ccc(CN2C(=O)CC(c3nnc(C4CC4)o3)=C(Br)c3ccc(C(N)=O)cc32)cc1F [Compound 20-22, 5-bromo-4-(5-cyclopropyl-1,3,4-oxadiazol-2-yl)-1-(3-fluoro-4-methylbenzyl)-2-oxo-2,3-dihydro-1H-benzo[b]azepine-8-carboxamide]
0.001 to 1 µM: [1]; [3] | [1]; [4] | [1]; [5] | [2]
